Our source for the inhibition of growth and MIC values is ChEMBL document CHEMBL3045986, “Antifungal activity of prenylated flavonoids isolated from Tephrosia apollinea L. against four phytopathogenic fungi” (2013).

In general, MIC refers to the smallest concentration in the dilution series that meets the test's criterion for growth inhibition.

The structures appear in SMILES notation. In brackets after ≈: the same amount, converted by molar mass.

Common to all, as to assay type: functional
The subject of assay [1] is Pestalotiopsis sp. Put plainly: Antifungal activity against Pestalotiopsis sp. assessed as growth inhibition at 4 mg/ml at 25 degC by agar well diffusion bioassay. Particulars: read-out: GI. A general note: In agar diffusion tests the substance spreads into inoculated agar from a disc or well.
For assay [2], the system named is Alternaria alternata. Put plainly: Antifungal activity against Alternaria alternata assessed as growth inhibition at 4 mg/ml at 25 degC by agar well diffusion bioassay. Conditions: read-out: GI.
Assay [3] concerns Pestalotiopsis sp. In words: Antifungal activity against Pestalotiopsis sp. assessed as growth inhibition at 3 mg/ml at 25 degC by agar well diffusion bioassay. Particulars: read-out: GI.
The subject of assay [4] is Helminthosporium. Put plainly: Antifungal activity against Helminthosporium sp. assessed as growth inhibition at 4 mg/ml at 25 degC by agar well diffusion bioassay. Particulars: read-out: GI.
For assay [5], the system named is Colletotrichum acutatum. Put plainly: Antifungal activity against Colletotrichum acutatum assessed as growth inhibition at 3 mg/ml at 25 degC by agar well diffusion bioassay. Conditions: read-out: GI.
Assay [6] concerns Alternaria alternata. In words: Antifungal activity against Alternaria alternata assessed as growth inhibition at 25 degC after 48 hr by two-fold broth macrodilution method.
Assay [7] deals with Helminthosporium. In words: Antifungal activity against Helminthosporium sp. assessed as growth inhibition at 1 mg/ml at 25 degC by agar well diffusion bioassay. Conditions: read-out: GI.
Assay [8] has as its system Alternaria alternata. Put plainly: Antifungal activity against Alternaria alternata assessed as growth inhibition at 3 mg/ml at 25 degC by agar well diffusion bioassay. Conditions: read-out: GI.
The test system of assay [9] is Helminthosporium. Put plainly: Antifungal activity against Helminthosporium sp. assessed as growth inhibition at 25 degC after 48 hr by two-fold broth macrodilution method.
Assay [10] deals with Alternaria alternata. In words: Antifungal activity against Alternaria alternata assessed as growth inhibition at 2 mg/ml at 25 degC by agar well diffusion bioassay. Particulars: read-out: GI.
Assay [11] has as its system Colletotrichum acutatum. Put plainly: Antifungal activity against Colletotrichum acutatum assessed as growth inhibition at 25 degC after 48 hr by two-fold broth macrodilution method.
The test system of assay [12] is Pestalotiopsis sp. Put plainly: Antifungal activity against Pestalotiopsis sp. assessed as growth inhibition at 25 degC after 48 hr by two-fold broth macrodilution method.
The test system of assay [13] is Alternaria alternata. In words: Antifungal activity against Alternaria alternata assessed as growth inhibition at 1 mg/ml at 25 degC by agar well diffusion bioassay. Conditions: read-out: GI.
The subject of assay [14] is Helminthosporium. In words: Antifungal activity against Helminthosporium sp. assessed as growth inhibition at 2 mg/ml at 25 degC by agar well diffusion bioassay. Particulars: read-out: GI.
Assay [15] has as its system Pestalotiopsis sp. Put plainly: Antifungal activity against Pestalotiopsis sp. assessed as growth inhibition at 1 mg/ml at 25 degC by agar well diffusion bioassay. Conditions: read-out: GI.
Assay [16] concerns Helminthosporium. Put plainly: Antifungal activity against Helminthosporium sp. assessed as growth inhibition at 3 mg/ml at 25 degC by agar well diffusion bioassay. Conditions: read-out: GI.
Assay [17] deals with Colletotrichum acutatum. Put plainly: Antifungal activity against Colletotrichum acutatum assessed as growth inhibition at 2 mg/ml at 25 degC by agar well diffusion bioassay. Conditions: read-out: GI.
Assay [18] concerns Colletotrichum acutatum. Put plainly: Antifungal activity against Colletotrichum acutatum assessed as growth inhibition at 1 mg/ml at 25 degC by agar well diffusion bioassay. Particulars: read-out: GI.
Assay [19] deals with Pestalotiopsis sp. In words: Antifungal activity against Pestalotiopsis sp. assessed as growth inhibition at 2 mg/ml at 25 degC by agar well diffusion bioassay. Particulars: read-out: GI.
Assay [20] deals with Colletotrichum acutatum. In words: Antifungal activity against Colletotrichum acutatum assessed as growth inhibition at 4 mg/ml at 25 degC by agar well diffusion bioassay. Particulars: read-out: GI.

Regarding `COc1ccc2c(=O)cc(-c3ccccc3)oc2c1/C=C/C(C)(C)O` [LANCEOLATIN-A], the inhibition of growth at 4000 µg/mL amounted to 29.7% in the assay on Pestalotiopsis sp. [1], 14.1% with Alternaria alternata [2], 16% in the assay on Helminthosporium [4] and 32.6% in the assay with Colletotrichum acutatum [20]. The inhibition of growth at 3000 µg/mL came to 23.8% in the assay with Pestalotiopsis sp. [3], 22.6% with Colletotrichum acutatum [5], 8.1% in the assay on Alternaria alternata [8] and 10.7% in the assay on Helminthosporium [16]. Further, the MIC with Alternaria alternata [6] stood at 1000 µg/mL (≈ 2970 µM); in the assay on Helminthosporium [9], 500 µg/mL (≈ 1490 µM); in the assay on Colletotrichum acutatum [11], 500 µg/mL (≈ 1490 µM); in the assay on Pestalotiopsis sp. [12] it was 500 µg/mL (≈ 1490 µM). Moreover, the inhibition of growth at 1000 µg/mL in the assay with Helminthosporium [7] was found to be 4.1%; in the assay on Alternaria alternata [13], 3.3%; in the assay on Pestalotiopsis sp. [15], 8.4%; in the assay on Colletotrichum acutatum [18], 10%. In addition, the inhibition of growth at 2000 µg/mL in the assay on Alternaria alternata [10] came to 6.6%; with Helminthosporium [14], 7.7%; in the assay on Colletotrichum acutatum [17], 15.2%; in the assay on Pestalotiopsis sp. [19] it was 16.3%.
`CC(=O)OC(C1COc2ccc3c(=O)cc(-c4ccccc4)oc3c21)C(C)(C)O` (stereo not given) [TEPHROAPOLLIN-F]: the inhibition of growth at 4000 µg/mL in the assay on Pestalotiopsis sp. [1] came to 51.7%; in the assay with Alternaria alternata [2] it was 32.8%; in the assay with Helminthosporium [4], 46.5%; in the assay on Colletotrichum acutatum [20], 58.3%. Moreover, the inhibition of growth at 3000 µg/mL in the assay on Pestalotiopsis sp. [3] is 45.1%; in the assay on Colletotrichum acutatum [5], 40.3%; in the assay on Alternaria alternata [8], 23.3%; in the assay on Helminthosporium [16], 36.3%. The minimal inhibitory concentration (MIC) came out at 500 µg/mL (≈ 1270 µM) with Alternaria alternata [6], 250 µg/mL (≈ 634 µM) in the assay with Helminthosporium [9], 125 µg/mL (≈ 317 µM) with Colletotrichum acutatum [11] and 250 µg/mL (≈ 634 µM) with Pestalotiopsis sp. [12]. For the same molecule, the inhibition of growth at 1000 µg/mL worked out at 18% in the assay with Helminthosporium [7], 11.9% with Alternaria alternata [13], 21.7% in the assay with Pestalotiopsis sp. [15] and 23.3% in the assay on Colletotrichum acutatum [18]. The inhibition of growth at 2000 µg/mL in the assay with Alternaria alternata [10] was found to be 16%; in the assay on Helminthosporium [14], 24.6%; in the assay on Colletotrichum acutatum [17], 31.9%; with Pestalotiopsis sp. [19] it was 26.1%.
For the molecule `CC(=O)O[C@@H]1C(C)(C)OC(=O)[C@]12COc1ccc3c(=O)cc(-c4ccccc4)oc3c12` [(+)-GLABRATEPHRIN], the inhibition of growth at 4000 µg/mL in the assay with Pestalotiopsis sp. [1] was determined as 31.9%; in the assay on Alternaria alternata [2] it was 24.1%; in the assay with Helminthosporium [4], 37.8%; in the assay on Colletotrichum acutatum [20] it was 46.4%. For the same molecule, the inhibition of growth at 3000 µg/mL with Pestalotiopsis sp. [3] stood at 20.8%; in the assay with Colletotrichum acutatum [5], 32.6%; in the assay on Alternaria alternata [8] it was 17%; in the assay on Helminthosporium [16], 23.3%. Further, the MIC with Alternaria alternata [6] turned out to be 500 µg/mL (≈ 1190 µM); with Helminthosporium [9], 250 µg/mL (≈ 595 µM); in the assay on Colletotrichum acutatum [11], 250 µg/mL (≈ 595 µM); in the assay with Pestalotiopsis sp. [12] it was 500 µg/mL (≈ 1190 µM). Besides, the inhibition of growth at 1000 µg/mL came to 13.9% in the assay on Helminthosporium [7], 5.3% in the assay on Alternaria alternata [13], 8% in the assay with Pestalotiopsis sp. [15] and 16.1% in the assay on Colletotrichum acutatum [18]. In addition, the inhibition of growth at 2000 µg/mL in the assay on Alternaria alternata [10] is 10%; with Helminthosporium [14] it was 11.6%; in the assay on Colletotrichum acutatum [17] it was 26.4%; in the assay with Pestalotiopsis sp. [19] it was 11.8%.
Take `COC(=O)Nc1nc2ccccc2[nH]1` [CARBENDAZIM]: the inhibition of growth at 4000 µg/mL came to 70.6% in the assay with Pestalotiopsis sp. [1], 67.8% in the assay with Alternaria alternata [2], 79% with Helminthosporium [4] and 78.9% in the assay on Colletotrichum acutatum [20]. The inhibition of growth at 3000 µg/mL was determined as 68.4% in the assay with Pestalotiopsis sp. [3], 73.9% in the assay with Colletotrichum acutatum [5], 63% in the assay with Alternaria alternata [8] and 66.3% in the assay with Helminthosporium [16]. Also, the minimum inhibitory concentration (MIC) in the assay with Alternaria alternata [6] was 125 µg/mL (≈ 654 µM); in the assay with Helminthosporium [9] it was 70 µg/mL (≈ 366 µM); with Colletotrichum acutatum [11] it was 70 µg/mL (≈ 366 µM); in the assay with Pestalotiopsis sp. [12] it was 70 µg/mL (≈ 366 µM). Besides, the inhibition of growth at 1000 µg/mL in the assay on Helminthosporium [7] came out at 44.2%; with Alternaria alternata [13] it was 43.1%; with Pestalotiopsis sp. [15], 47.7%; with Colletotrichum acutatum [18], 50.6%. In addition, the inhibition of growth at 2000 µg/mL in the assay on Alternaria alternata [10] is 56.7%; in the assay with Helminthosporium [14], 61.1%; in the assay with Colletotrichum acutatum [17], 60.3%; with Pestalotiopsis sp. [19], 61.3%.
Consider `CC(=O)O[C@@H]1C(C)(C)OC(=O)[C@@]12COc1ccc3c(=O)cc(-c4ccccc4)oc3c12` [ISOGLABRATEPHRIN], for which the inhibition of growth at 4000 µg/mL with Pestalotiopsis sp. [1] was 27.5%; with Alternaria alternata [2] it was 16.1%; with Helminthosporium [4] it was 32.6%; with Colletotrichum acutatum [20] it was 42.9%. Besides, the inhibition of growth at 3000 µg/mL in the assay on Pestalotiopsis sp. [3] is 17%; with Colletotrichum acutatum [5], 37%; in the assay on Alternaria alternata [8], 10.7%; in the assay with Helminthosporium [16], 28.9%. The minimal inhibitory concentration (MIC) with Alternaria alternata [6] was determined as 1000 µg/mL (≈ 2380 µM); in the assay on Helminthosporium [9] it was 1000 µg/mL (≈ 2380 µM); in the assay with Colletotrichum acutatum [11] it was 250 µg/mL (≈ 595 µM); in the assay on Pestalotiopsis sp. [12], 1000 µg/mL (≈ 2380 µM). In addition, the inhibition of growth at 1000 µg/mL was found to be 7.4% in the assay on Helminthosporium [7], 3.2% with Alternaria alternata [13], 6.3% with Pestalotiopsis sp. [15] and 14.4% in the assay on Colletotrichum acutatum [18]. For the same molecule, the inhibition of growth at 2000 µg/mL was found to be 8.4% in the assay on Alternaria alternata [10], 16.3% with Helminthosporium [14], 25.3% in the assay with Colletotrichum acutatum [17] and 14.4% with Pestalotiopsis sp. [19].
